US9974778B2, “Substituted pyridinones as MGAT2 inhibitors” (BRISTOL-MYERS SQUIBB COMPANY, priority 2014, dated 2018)

Target: T1, Human MGAT-2 (Homo sapiens, UniProt Q3SYC2)
T1 construct: made in house; host or cells: Sf9 cells (membrane preparation)
Assay: MGAT LCMS Assay
Type: biochemical
Settings: human MGAT2 membranes expressed in Sf9 cells; 100 μM 2-oleoylglycerol, 15 μM oleoyl-coenzyme A; read-out: h-MGAT LCMS IC50
Protocol: Assay plates were run through a fully automated robotics system and shaken for 5 seconds every minute for a total 10 minutes. The reactions were then quenched with 120 μL of ice cold methanol containing 1 μg/mL 1,2-distearoyl-rac-glycerol as the internal standard. Plates were shaken for 2 minutes and spun down to remove protein precipitation. After the spin, samples were transferred to LC/MS compatible PCR plates. For LC/MS analysis, a ThermoFisher Surveyor pump, utilizing a Waters […]® C8, 50×2.1 mm column, was used for the chromatography of enzyme products. The buffer system consists of 0.1% formic acid in water with a mobile phase consisting 0.1% formic acid in methanol. […] The first 0.5 minutes of each injection was diverted to waste to eliminate the presence of Phosphate buffer in the enzymatic reaction. The column was run at 0.6 mL/min and a temperature of 65° C. Mass spectrometry analysis of the samples was performed on a ThermoFisher Quantum Triple quad utilizing APCI (+) as the mode of ionization. […] The ratio of Diolein to internal standard (Peak Area Ratio) is utilized to calculate IC50 values.

T1 sequence (Q3SYC2 whole entry): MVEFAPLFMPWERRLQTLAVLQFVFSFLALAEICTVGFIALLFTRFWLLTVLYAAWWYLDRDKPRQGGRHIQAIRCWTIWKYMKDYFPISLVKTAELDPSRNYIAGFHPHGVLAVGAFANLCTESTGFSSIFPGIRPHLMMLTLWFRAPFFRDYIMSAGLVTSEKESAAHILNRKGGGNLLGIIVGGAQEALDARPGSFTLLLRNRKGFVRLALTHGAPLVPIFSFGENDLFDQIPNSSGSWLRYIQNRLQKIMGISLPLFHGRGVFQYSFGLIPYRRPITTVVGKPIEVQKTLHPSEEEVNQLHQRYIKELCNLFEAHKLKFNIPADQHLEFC

SMILES	IC50
Cc1ccc(-c2cc(C3CCCCC3)[nH]c(=O)c2C(=O)Nc2cccnc2)cc1 [Example 37, 6-Cyclohexyl-2-oxo-N-(pyridin-3-yl)-4-(p-tolyl)-1,2-dihydropyridine-3-carboxamide]	543 nM
CCOc1ccc(NC(=O)c2c(-c3ccc(C)cc3)c(F)c(C3CCCCC3)[nH]c2=O)cc1 [Example 38, 6-Cyclohexyl-N-(4-ethoxyphenyl)-5-fluoro-2-oxo-4-(p-tolyl)-1,2-dihydropyridine-3-carboxamide]	1250 nM
CCOc1ccc(NC(=O)c2c(-c3ccc(N(C)C)cc3)cc(C3(F)CCCCC3)[nH]c2=O)cc1 [Example 39, 4-(4-(Dimethylamino)phenyl)-N-(4-ethoxyphenyl)-6-(1-fluorocyclohexyl)-2-oxo-1,2-dihydropyridine-3-carboxamide]	139 nM
CCCCCc1ccc(-c2c(C3CCCC3)[nH]c(=O)c(C(=O)Nc3ccc(OCC)cc3)c2-c2ccc(C)cc2)cc1 [Example 40, 6-Cyclopentyl-N-(4-ethoxyphenyl)-2-oxo-5-(4-pentylphenyl)-4-(p-tolyl)-1,2-dihydropyridine-3-carboxamide]	390 nM
CCOc1ccc(NC(=O)c2c(-c3ccc(C)cc3)cc(C3(F)CCCCC3)[nH]c2=O)cc1 [Example 41, N-(4-Ethoxyphenyl)-6-(1-fluorocyclohexyl)-2-oxo-4-(p-tolyl)-1,2-dihydropyridine-3-carboxamide]	36 nM
CCCCCc1ccc(-c2cc(-c3ccc(CC)o3)c(C(=O)Nc3ccc(OCC)cc3)c(=O)[nH]2)cc1 [Example 42, N-(4-Ethoxyphenyl)-4-(5-ethylfuran-2-yl)-2-oxo-6-(4-pentylphenyl)-1,2-dihydropyridine-3-carboxamide]	395 nM
CC(C)(C)c1ccc(-c2cc(-c3ccc(OCCCC(F)(F)F)cc3)[nH]c(=O)c2C(=O)Nc2ccccc2)cc1 [Example 44, 4-(4-(tert-Butyl)phenyl)-2-oxo-N-phenyl-6-(4-(4,4,4-trifluorobutoxy)phenyl)-1,2-dihydropyridine-3-carboxamide]	6 nM
CCOc1ccc(NC(=O)c2c(-c3ccc(C(C)(C)C)cc3)cc(-c3ccc(OCCCC(F)(F)F)cc3)[nH]c2=O)cc1 [Example 45, 4-(4-(tert-Butyl)phenyl)-N-(4-ethoxyphenyl)-2-oxo-6-(4-(4,4,4-trifluorobutoxy)phenyl)-1,2-dihydropyridine-3-carboxamide]	9 nM
O=c1[nH]c(-c2ccc(OCCCCC(F)(F)F)cc2)cc(-c2ccc(C3CC3)s2)c1-c1nnn[nH]1 [Example 46]	27 nM
O=c1[nH]c(-c2ccc(OCCCC(F)(F)F)cc2)cc(-c2cc3ccccc3s2)c1-c1nnn[nH]1 [Example 47, 4-(Benzo[b]thiophen-2-yl)-3-(1H-tetrazol-5-yl)-6-(4-(4,4,4-trifluorobutoxy)phenyl)pyridin-2(1H)-one]	29 nM
CC(C)(C)c1ccc(-c2cc(-c3ccc(OCCCC(F)(F)F)cc3)[nH]c(=O)c2-c2nnn[nH]2)cc1 [Example 48, 4-(4-(tert-Butyl)phenyl)-3-(1H-tetrazol-5-yl)-6-(4-(4,4,4-trifluorobutoxy)phenyl)pyridin-2(1H)-one]	40 nM
Cc1ccc(-c2cc(-c3ccc(OCCCC(F)(F)F)cc3)[nH]c(=O)c2-c2nnn[nH]2)cc1C [Example 50, 4-(3,4-Dimethylphenyl)-3-(1H-tetrazol-5-yl)-6-(4-(4,4,4-trifluorobutoxy)phenyl)pyridin-2(1H)-one]	109 nM
COc1ccc(NC(=O)c2c(-c3ccc(C(C)(C)C)cc3)cc(-c3ccc(OCCCC(F)(F)F)cc3)[nH]c2=O)cc1 [Example 51, 4-(4-(tert-Butyl)phenyl)-N-(4-methoxyphenyl)-2-oxo-6-(4-(4,4,4-trifluorobutoxy)phenyl)-1,2-dihydropyridine-3-carboxamide]	417 nM
C/C=C/c1c(-c2ccc(CCCCC)cc2)[nH]c(=O)c(C(=O)Nc2ccc(OCC)cc2)c1-c1ccc(C)cc1 [Example 52]	3 nM
CCOc1ccc(NC(=O)c2c(-c3ccc(C)cc3)cc(-c3cnn(CCCCCC(F)(F)F)c3)[nH]c2=O)cc1 [Example 53, N-(4-Ethoxyphenyl)-2-oxo-4-(p-tolyl)-6-(1-(6,6,6-trifluorohexyl)-1H-pyrazol-4-yl)-1,2-dihydropyridine-3-carboxamide]	267 nM
CCOc1ccc(NC(=O)c2c(-c3ccc(C)cc3)cc(C3(F)CCCC3)[nH]c2=O)cc1 [Example 54, N-(4-Ethoxyphenyl)-6-(1-fluorocyclopentyl)-2-oxo-4-(p-tolyl)-1,2-dihydropyridinc-3-carboxamide]	127 nM
Cc1ccc(-c2cc(-c3ccc(OCCCCCC(F)(F)F)cc3)[nH]c(=O)c2C(=O)NS(=O)(=O)N(C)C)cc1 [Example 56, N-(N,N-Dimethylsulfamoyl)-2-oxo-4-(p-tolyl)-6-(4-((6,6,6-trifluorohexyl)oxy)phenyl)-1,2-dihydropyridine-3-carboxamide]	29 nM

SMILES	IC50
CC(C)n1ccc(-c2cc(-c3ccc(OCCCCCC(F)(F)F)cc3)[nH]c(=O)c2-c2nnn[nH]2)c1 [Example 57, 4-(1-Isopropyl-1H-pyrrol-3-yl)-3-(1H-tetrazol-5-yl)-6-(4-((6,6,6-trifluorohexyl)oxy)phenyl)pyridin-2(1H)-one]	30 nM
Cc1ccc(-c2cc(-c3ccc(OCCCC(F)(F)F)c(C)c3)[nH]c(=O)c2-c2nnn[nH]2)cc1 [Example 58, 6-(3-Methyl-4-(4,4,4-trifluorobutoxy)phenyl)-3-(1H-tetrazol-5-yl)-4-(p-tolyl)pyridin-2(1H)-one]	575 nM
CN(C)c1ccc(-c2cc(-c3ccc(OCCCCCC(F)(F)F)cc3)[nH]c(=O)c2-c2nnn[nH]2)cc1 [Example 59, 4-(4-(Dimethylamino)phenyl)-3-(1H-tetrazol-5-yl)-6-(4-((6,6,6-trifluorohexyl)oxy)phenyl)pyridin-2(1H)-one]	6 nM
Cc1ccc(-c2cc(-c3ccc(CCC4CC4)cc3)[nH]c(=O)c2-c2nnn[nH]2)cc1 [Example 61, 6-(4-(2-Cyclopropylethyl)phenyl)-3-(1H-tetrazol-5-yl)-4-(p-tolyl)pyridin-2(1H)-one]	139 nM
Cc1ccc(-c2cc(-c3ncc(CCCCCCC(F)(F)F)s3)[nH]c(=O)c2-c2nnn[nH]2)cc1 [Example 62, 3-(1H-Tetrazol-5-yl)-4-(p-tolyl)-6-(5-(7,7,7-trifluoroheptyl)thiazol-2-yl)pyridin-2(1H)-one]	188 nM
O=C(NS(=O)(=O)C1CC1)c1c(-c2ccc(CC3CC3)cc2)cc(-c2ccc(OCCCCCC(F)(F)F)cc2)[nH]c1=O [Example 63, 4-(4-(Cyclopropylmethyl)phenyl)-N-(cyclopropylsulfonyl)-2-oxo-6-(4-((6,6,6-trifluorohexyl)oxy)phenyl)-1,2-dihydropyridine-3-carboxamide]	17 nM
COc1ccc(-c2cc(-c3ccc(OCCCCCC(F)(F)F)cc3)[nH]c(=O)c2C(=O)NS(=O)(=O)C2CC2)cc1 [Example 65]	172 nM
CC(C)n1ccc(-c2cc(-c3ccc(OCCCCCC(F)(F)F)cc3)[nH]c(=O)c2-c2nn[nH]n2)n1 [Example 66]	61 nM
CCOc1ccc(NC(=O)c2c(-c3cnc(N(C)C)s3)cc(-c3ccc(OCCCC(F)(F)F)cc3)[nH]c2=O)cc1 [Example 67]	2 nM
CN(C)c1ncc(-c2cc(-c3ccc(OCCCC(F)(F)F)cc3)[nH]c(=O)c2-c2nnn[nH]2)s1 [Example 68, 4-(2-(Dimethylamino)thiazol-5-yl)-3-(1H-tetrazol-5-yl)-6-(4-(4,4,4-trifluorobutoxy)phenyl)pyridin-2(1H)-one]	673 nM
Cc1ccc(-c2cc(-c3ccc(C4=CCCCCC4)cc3)[nH]c(=O)c2-c2nnn[nH]2)cc1 [Example 69, 6-(4-(Cyclohept-1-en-1-yl)phenyl)-3-(1H-tetrazol-5-yl)-4-(p-tolyl)pyridin-2(1H)-one]	220 nM
Cc1ccc(-c2cc(-c3ccc(OCCCCCC(F)(F)F)c(C)c3)[nH]c(=O)c2-c2nnn[nH]2)cc1 [Example 70, 6-(3-Methyl-4-((6,6,6-trifluorohexyl)oxy)phenyl)-3-(1H-tetrazol-5-yl)-4-(p-tolyl)pyridin-2(1H)-one]	97 nM
CS(=O)(=O)NC(=O)c1c(-c2ccc(OC(F)F)cc2)cc(-c2ccc(OCCCCCC(F)(F)F)cc2)[nH]c1=O [Example 71]	15 nM
CC(C)n1ccc(-c2cc(-c3ccc(CCCCC(F)(F)F)cc3)[nH]c(=O)c2-c2nn[nH]n2)n1 [Example 74, 4-(1-Isopropyl-1H-pyrazol-3-yl)-3-(2H-tetrazol-5-yl)-6-(4-(5.5,5-trifluoropentyl)phenyl)pyridin-2(1H)-one]	255 nM
O=c1[nH]c(-c2ccc(OCCCC(F)(F)F)cc2)cc(-c2ccn(C3CC3)n2)c1-c1nn[nH]n1 [Example 76, 4-(1-Cyclopropyl-1H-pyrazol-3-yl)-3-(2H-tetrazol-5-yl)-6-(4-(4,4,4-trifluorobutoxy)phenyl)pyridin-2(1H)-one]	87 nM
O=C(NS(=O)(=O)C1CC1)c1c(-c2ccn(C3CCC3)n2)cc(-c2ccc(OCCCC(F)(F)F)cc2F)[nH]c1=O [Example 77, 4-(1-Cyclobutyl-1H-pyrazol-3-yl)-N-(cyclopropylsulfonyl)-6-(2-fluoro-4-(4,4,4-trifluorobutoxy)phenyl)-2-oxo-1,2-dihydropyridine-3-carboxamide]	143 nM
Cc1ccc(-c2cc(-c3ccc(OCCCC(F)(F)F)cc3)[nH]c(=O)c2C(=O)NC2CCC2)cc1 [Example 79, N-Cyclobutyl-2-oxo-4-(p-tolyl)-6-(4-(4,4,4-trifluorobutoxy)phenyl)-1,2-dihydropyridine-3-carboxamide]	198 nM
